Measurements: patent publication US11805773B1, “Nanocomposite including water-soluble nano-polymer and mesoporous silica nanoparticles encapsulated with azole derivatives” (KING FAISAL UNIVERSITY, priority 2023, dated 2023)

melting point | Structure (SMILES)
120 to 122 °C | COc1ccc(C2CC(c3ccc(Cl)cc3Cl)=NN2c2nc(-c3ccccc3)cs2)cc1OC (stereo not shown) [1a, 2-(3-(2,4-dichlorophenyl)-5-(3,4-dimethoxyphenyl)-4,5-dihydro-1H-pyrazol-1-yl)-4-phenylthiazole]
158 to 159 °C | COc1ccc(C2CC(c3ccc(Cl)cc3Cl)=NN2c2nc(-c3ccc(Cl)cc3)cs2)cc1OC (stereo not shown) [1b, 4-(4-chlorophenyl)-2-(3-(2,4-dichlorophenyl)-5-(3,4-dimethoxyphenyl)-4,5-dihydro-1H-pyrazol-1-yl)thiazole]
72 to 75 °C | COc1ccc(C2CC(c3ccc(Cl)cc3Cl)=NN2c2nc(-c3ccccc3)cs2)cc1 (stereo not shown) [1c, 2-(3-(2,4-dichlorophenyl)-5-(4-methoxyphenyl)-4,5-dihydro-1H-pyrazol-1-yl)-4-phenylthiazole]
140 to 141 °C | COc1ccc(C2CC(c3ccc(Cl)cc3Cl)=NN2c2nc(-c3ccc(Cl)cc3)cs2)cc1 (stereo not shown) [1d, 4-(4-chlorophenyl)-2-(3-(2,4-dichlorophenyl)-5-(4-methoxyphenyl)-4,5-dihydro-1H-pyrazol-1-yl)thiazole]
